{"source": "patent US9926354B2", "about": "“Amyloid precursor protein (APP) based Ã#-secretase inhibitor peptides, and methods of use” (UNIVERSITY OF SOUTH FLORIDA, priority 2014, dated 2018)", "key": {"[1]": {"test_system": "CHO cells over-expressing human wild-type APP (CHO/APPwt)", "assay": "Aβ and sAPPα production in cultured media of CHO/APPwt cells by ELISA (24 hours)", "assay_type": "cell-based, Chinese hamster", "conditions": "20 μg/mL", "method": "Cell Culture—Chinese hamster ovary (CHO) cells engineered to express wild-type human APP (CHO/APPwt cells) or Swedish mutant human APP (CHO/APPswe cells) were kindly provided by Dr. Stefanie Hahn and Dr. Sascha Weggen (University of Heinrich Heine, Dusseldorf, Germany). As described previously (Obregon et al., 2012), these cells were cultured in Dulbecco's modified Eagle's medium (DMEM) with 10% fetal bovine serum (FBS), 1 mM sodium pyruvate, and 100 units/mL of penicillin and streptomycin.\nTo confirm the binding of APPsweBBP with BACE1, CHO/APPwt cells were plated in 8-well chambers (5×10^5/well), incubated with TAT-APPsweBBP-biotin or APPsweBBP-biotin at 20 μM for 30 minutes, fixed with 4% paraformaldehyde for 20 minutes, washed and permeabilized with 0.5% Triton X-100. Following application of blocking buffer, these cells were stained with mouse anti-BACE1 and rabbit anti-biotin antibodies overnight at 4° C. for immunocytochemistry analysis. […] The cultured media were collected for Aβ analysis by enzyme-linked immunosorbent assay (ELISA) and sAPPα analysis by ELISA and Western blot (WB). Cell lysates were also prepared for analysis of APP amyloidogenic processing by WB.\nELISA—Mouse brains were homogenized in ice-cold lysis buffer for 30 seconds using a Minilys tissue homogenizer (Bertin Technologies, Montigny-le-Bretonneux, France) set at high speed, allowed to stand for 15 minutes at 4° C., and centrifuged at 15,000 rpm for 30 minutes. Soluble Aβ1-40/42 species and sAPPα were directly detected in cultured cell media or brain homogenates using the Aβ1-40/42 (Invitrogen) and sAPPα ELISA kits (IBL-America, Minneapolis, Minn., USA).\nTo further examine the ability of the Swedish mutant APP BACE1 binding peptide/Tat fusion peptides to decrease Aβ production, CHO cells overexpressing either human wild-type APP (CHO/APPwt cells) or Swedish mutant APP (hereinafter referred to as “CHO/APPswe cells”) are treated with a variety of APP-based BACE1 inhibitor peptides, as shown in Table 1 and Table 2. Aβ production is determined using ELISA."}, "BACE1": {"biological_target": "BACE1 (Homo sapiens, UniProt P56817)", "sequence (P56817 46-501)": "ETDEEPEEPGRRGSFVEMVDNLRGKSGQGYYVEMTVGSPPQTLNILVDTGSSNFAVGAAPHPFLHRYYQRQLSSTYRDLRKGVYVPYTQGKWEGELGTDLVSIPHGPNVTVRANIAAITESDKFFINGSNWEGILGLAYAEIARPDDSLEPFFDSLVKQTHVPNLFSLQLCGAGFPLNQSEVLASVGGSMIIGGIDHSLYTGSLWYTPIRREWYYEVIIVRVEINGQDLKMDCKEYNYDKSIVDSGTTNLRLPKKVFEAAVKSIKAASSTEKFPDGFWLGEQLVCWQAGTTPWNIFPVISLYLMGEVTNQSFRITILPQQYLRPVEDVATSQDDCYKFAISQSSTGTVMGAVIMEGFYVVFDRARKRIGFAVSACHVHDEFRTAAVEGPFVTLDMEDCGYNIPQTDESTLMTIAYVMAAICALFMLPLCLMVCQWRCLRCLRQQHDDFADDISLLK", "assay": "BACE1 activity assay (FRET, cell-free)", "assay_type": "biochemical", "parameters": "purchased Pan Vera Co., Madison, Wis., USA", "conditions": "peptide final concentration 20 μM, 90 minutes, room temperature", "method": "BACE1 Activity Assay—The BACE1 inhibiting activity of APP-based BACE1 site binding peptides were determined using a fluorescence resonance energy transfer (FRET) assay (Pan Vera Co., Madison, Wis., USA), which employs a recombinant baculovirus-expressed BACE1 and a specific substrate (Rh-[…]-quencher) that is based on the APPswe mutation. This specific peptide substrate becomes highly fluorescent upon enzymatic cleavage. A mixture of 10 μL of BACE1 (1.0 U/mL in 50 mM Tris, pH7.5, 10% glycerol), 10 μL of FRET-substrate, and 10 μL of the various APP-based BACE1 site binding peptides (final concentration 20 μM) were incubated for 90 minutes in the dark at room temperature. Then, 10 μL of BACE1 stop buffer (2.5 M sodium acetate) was added to the mixture. Fluorescence was read using a fluorometer, with excitation at 545 nm and emission at 585 nm.\nAs a required enzyme for the generation of neurotoxic Aβ from APP, BACE1 is well established as an important mediator of AD β-amyloid pathology. As such, it has become an important target for new disease modifying therapeutics. However, since BACE1 also has important physiological roles, abolishment of the enzyme or its activity may lead to deleterious side effects as evidenced by numerous failed clinical trials discussed previously. […] Since previous studies have established a close relationship between α-helix structure and peptide-protein (or protein-protein) interactions (Azzarito, 2013; Rao et al., 2013), several APP based peptides were synthesized that might serve as a preferable substrate for BACE1. Importantly, these peptides were free of the Aβ-containing segment and, thus, cannot be amyloidogenic. In theory, these could be used to “hijack” the BACE1 processing of endogenous APP and lead to a decrease in cerebral Aβ. These BACE1 substrates and controls were incubated with recombinant BACE1 and percent of inhibition of the enzyme was calculated. […] These findings indicate that the α-helical TAT fusion domain may help to promote selective APPsweBBP proteolysis by BACE1, yielding substrate competition against human wild-type APP."}}}
{"sequence": "YGRKKRRQRRR [TAT, reference compound]", "values": [{"measurement": "Secreted Aβ40 (ng/mg; mean ± SD)", "setting": "[1]", "result": "11.32 ± 0.45", "unit": "ng/mg"}, {"measurement": "Secreted Aβ42 (ng/mg; mean ± SD)", "setting": "[1]", "result": "1.07 ± 0.057", "unit": "ng/mg"}, {"measurement": "Secreted sAPPα (ng/mg; mean ± SD)", "setting": "[1]", "result": "4766.34 ± 198.34", "unit": "ng/mg"}, {"measurement": "% of inhibition (mean ± SD) of BACE1", "setting": "BACE1", "result": "3.32 ± 0.02", "unit": "%"}]}
